Assay results reported in PMC12687421, “Characterisation of an allosteric site in PLCγ enzymes and implications for development of their specific inhibitors” (Biochemical Journal, 2025).

Target: T1, hPLCγ1 (Homo sapiens, UniProt P19174, I813T)
T1 construct: specific activities of PLCγ1^wt and PLCγ2^wt full-length proteins; made in house; host or cells: Escherichia coli T7 Express lysY/Iq
T1 sequence (P19174 1-1291 isoform P19174-2 I813T): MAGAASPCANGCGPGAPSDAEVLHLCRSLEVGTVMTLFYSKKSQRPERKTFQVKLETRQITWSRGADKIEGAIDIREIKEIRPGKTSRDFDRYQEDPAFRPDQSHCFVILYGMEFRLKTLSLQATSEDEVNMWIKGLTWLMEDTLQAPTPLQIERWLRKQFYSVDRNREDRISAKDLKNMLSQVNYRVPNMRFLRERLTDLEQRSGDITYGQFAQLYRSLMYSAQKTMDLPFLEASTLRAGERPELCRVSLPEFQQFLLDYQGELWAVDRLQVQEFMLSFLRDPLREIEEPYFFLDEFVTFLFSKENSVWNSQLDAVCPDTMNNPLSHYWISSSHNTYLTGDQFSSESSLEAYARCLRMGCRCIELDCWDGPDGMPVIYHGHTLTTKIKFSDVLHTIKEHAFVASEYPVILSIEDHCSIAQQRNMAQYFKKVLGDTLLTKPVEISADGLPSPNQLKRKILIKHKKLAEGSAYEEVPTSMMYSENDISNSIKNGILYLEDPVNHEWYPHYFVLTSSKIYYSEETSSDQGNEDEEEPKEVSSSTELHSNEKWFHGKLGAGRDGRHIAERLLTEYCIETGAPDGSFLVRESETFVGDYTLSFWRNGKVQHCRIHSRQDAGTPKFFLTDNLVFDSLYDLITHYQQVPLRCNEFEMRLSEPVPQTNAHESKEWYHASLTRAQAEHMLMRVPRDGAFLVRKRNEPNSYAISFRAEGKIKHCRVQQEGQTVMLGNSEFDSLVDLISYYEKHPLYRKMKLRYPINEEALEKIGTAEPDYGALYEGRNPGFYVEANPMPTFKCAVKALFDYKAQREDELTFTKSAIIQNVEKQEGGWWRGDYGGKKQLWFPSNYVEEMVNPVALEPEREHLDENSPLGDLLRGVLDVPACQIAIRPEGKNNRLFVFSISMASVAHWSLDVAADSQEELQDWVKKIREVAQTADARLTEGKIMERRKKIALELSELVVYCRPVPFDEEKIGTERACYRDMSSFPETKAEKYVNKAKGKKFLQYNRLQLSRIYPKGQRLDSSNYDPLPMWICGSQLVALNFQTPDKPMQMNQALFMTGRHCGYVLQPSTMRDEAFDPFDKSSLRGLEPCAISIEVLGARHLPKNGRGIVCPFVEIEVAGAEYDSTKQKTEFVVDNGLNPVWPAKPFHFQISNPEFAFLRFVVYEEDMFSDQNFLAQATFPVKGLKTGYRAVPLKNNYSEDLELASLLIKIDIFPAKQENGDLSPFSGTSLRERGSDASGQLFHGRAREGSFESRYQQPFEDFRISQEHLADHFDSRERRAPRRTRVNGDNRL
Experiment: Hydrogen deuterium exchange mass spectrometry (HDX-MS), apo vs 10 µM ADP
Format: binding
Procedure: HDX reactions comparing apo hPLCγ1 to hPLCγ1 incubated with ADP were carried out in a 15 µl reaction volume containing 10 pmol of hPLCγ1 (0.67 µM) and 10 µM of ADP and 1.67% DMSO. The exchange reactions were initiated by the addition of 10.0 µl of D2O buffer (25 mM HEPES pH 7.5, 150 mM NaCl, 2 mM TCEP 92.25% D2O (V/V)) to 5.0 µl of protein (final D2O concentration of 61.5%). Reactions proceeded for 3 s at 0°C, 30 s, 300 s and 3000 s at 20°C before being quenched with ice cold acidic quench buffer, resulting in a final concentration of 0.6M guanidine HCl and 0.9% formic acid post quench. All conditions and time points were created and run in independent triplicate. Samples were flash frozen immediately after quenching and stored at -80°C until injected onto the ultra-performance liquid chromatography (UPLC) system for proteolytic cleavage, peptide separation and injection onto a QTOF for mass analysis, described below.
Protein samples were rapidly thawed and injected onto an integrated fluidics system containing a HDx-3 PAL liquid handling robot and climate-controlled (2°C) chromatography system (Trajan), a Waters Acquity UPLC I-Class Series System, as well as an Impact HD QTOF Mass spectrometer (Bruker). The full details of the automated LC system were previously described. The samples were run over an immobilised pepsin column (Affipro; Enzymate Protein Pepsin Column, 2.1 mm X 20 mm) at 200 µl/min for 3 minutes at 2°C. […]
Peptides were identified from the non-deuterated samples of p110α using data-dependent acquisition following tandem MS/MS experiments (0.5 s precursor scan from 150 to 2000 m/z; twelve 0.25 s fragment scans from 150 to 2000 m/z). MS/MS datasets were analysed using FragPipe v18.0 and peptide identification was carried out by using a false discovery-based approach using a database of purified proteins and known contaminants [[35–37]]. […]
HD-Examiner Software (Trajan) was used to automatically calculate the level of deuterium incorporation into each peptide. […] Deuteration levels were calculated using the centroid of the experimental isotope clusters. […]

Nc1ncnc2c1ncn2[C@@H]1O[C@H](COP(=O)(O)OP(=O)(O)O)[C@@H](O)[C@H]1O [ADP]
difference in deuterium exchange (increase in exchange) (amino acids 24–35 in the nPH domain): 4.5–10%
difference in deuterium exchange (protection) (amino acids 330–347, 367–386, 863–882 and 957–973): 4.5–10%
difference in deuterium exchange (protection) (amino acids 481–495): > 10%
